Counter-ions that a name gives are not always drawn.
System: YAP-TEAD interaction
Assay: SK-HEP-1 reporter assay (8xTEAD responsive elements driving NanoLuc luciferase)
Assay type: cell-based
Settings: Homo sapiens, SK-HEP1, SK-HEP-1 reporter assay
Method: To identify inhibitors of YAP-TEAD interaction, 8×TEAD responsive elements driving the NanoLuc® luciferase gene were stably integrated into SK-HEP-1 cells (ECACC #: 91091816).
For the assay, cells were treated in duplicates with the test compounds in a 10-point dose, with the top concentration starting at 30 μM (final concentration in assay). After a 24 hour incubation at 37° C., 95% rH, and 5% CO2, a luciferase substrate/lysis reagent mix (NanoGlo™, Promega) was added to the cells, allowing the quantification of cellular luciferase activity.
Cell Media: The cells were cultured in the following media: MEM, +10% FBS, +1× GlutaMAX, +1 mM Sodium-Pyruvate, +100 μM Non-essential amino acids, +0.1 mg/ml Hygromycin. The media used for the assay was: MEM (w/o Phenol Red), +10% FBS, +1× GlutaMAX, +1 mM Sodium-Pyruvate, +100 μM Non-essential amino acids, +0.5% Pen/Strep
Reagents: The reagents used are listed below:
Cell culture: The cells were examined using an inverted microscope to check for health and cell density. To dissociate adherent cells, the monolayer of cells was washed once with pre-warmed PBS. After removing the PBS, 3 ml pre-warmed Accutase® was added to a F75 flask, dispersed evenly and the flask was allowed to sit in incubator for ˜4-5 minutes.
When a single cell suspension was obtained, 7 ml of prewarmed growth media was added and resuspended with the cells. The cell suspension was transferred to a sterile 15 ml conical centrifuge tube, and spun for 5 min at 300×g, RT. The supernatant was discarded and the pellet was resuspended in 10 ml of pre-warmed growth media.
The total cell count was determined, and 20 μl of the desired cell number was added to each well of a 384 well plate using a Multidrop Combi. The plates were then incubated for 24 hours at 37° C., 95% rH, and 5% C02.
Compound treatment: 24 hours after seeding, the cells were treated with compounds.
A 1:333 dilution of compounds, diluted in DMSO, was made to get a final concentration of 0.3% DMSO per well. To transfer the compounds to the assay plate, […] was shot from Labcyte low dead volume plates to the cell plates containing 20 μl media/well with the ECHO 555 liquid handling system.
After treatment, the cells were fed with 20 μl fresh pre-warmed assay media using a Multidrop combi.
The assay plates were then incubated for another 24 h at 37° C., 95% rH, and 5% CO2.
Luciferase readout: 24 h after treatment, the plates were taken out of the incubator and were allowed to equilibrate to RT. 30 μl of NanoGlo® reagent was added to the plates in the dark. Plates were shaken for 20 min on a Teleshake (˜1500 rpm) in the dark. The luminescence was then measured using an EnVision microplate reader. The IC50 values were generated using Genedata Screener®.

[1] = n.d. = value not detectable below threshold given in parentheses, ND = not determinable within the entire range

Structure (SMILES)	IC50 (class symbols) [nM]	IC50 [1] [nM]
Cn1nc2c3cc(C(=O)O)ccc3n(-c3ccc(C(F)(F)F)cc3F)c2n1 [Example C258, 4-[2-fluoro-4-(trifluoromethyl)phenyl]-2-methyl-2H,4H-[1,2,3]triazolo[4,5-b]indole-7-carboxylic acid]	1 to 10	–
Cn1cc2c3cc(N(S(C)(=O)=O)S(C)(=O)=O)ccc3n(-c3ccc(C(F)(F)F)cc3)c2n1 [Example C19, N-methanesulfonyl-N-{2-methyl-8-[4-(trifluoromethyl)phenyl]-2H,8H-pyrazolo[3,4-b]indol-5-yl}methanesulfonamide]	100 to 10000	–
Cn1cc2c3cc(NC(=O)CC4CNC4)ccc3n(-c3ccc(C(F)(F)F)cc3)c2n1 [Example C244, 2-(azetidin-3-yl)-N-{2-methyl-8-[4-(trifluoromethyl)phenyl]-2H,8H-pyrazolo[3,4-b]indol-5-yl}acetamide formate]	100 to 10000	–
C[C@H](CO)NS(=O)(=O)c1ccc2c(c1)c1nnn(C)c1n2-c1ccc(C(F)(F)F)cc1 [Example C13, N-[(2R)-1-hydroxypropan-2-yl]-3-methyl-4-[4-(trifluoromethyl)phenyl]-3H,4H-[1,2,3]triazolo[4,5-b]indole-7-sulfonamide]	–	> 30000
C=Cc1ccc2c(c1)c1c(ncn1C)n2-c1ccc(C(F)(F)F)cc1 [Example C179, 7-ethenyl-1-methyl-4-[4-(trifluoromethyl)phenyl]-1H,4H-imidazo [4,5-b]indole]	100 to 10000	–
[2H]C1([2H])C(n2c3ccc(C(=O)N[C@H](C)CO)cc3c3cn(C)nc32)C([2H])([2H])C([2H])([2H])C([2H])([2H])C1([2H])[2H] [Example C197]	100 to 10000	–
C[C@H](NC(=O)c1ccc2c(c1)c1cn(C)nc1n2-c1ccc(C(F)(F)F)cc1)c1ccc(Cl)nc1 [Example C265, N-[(1S)-1-(6-chloropyridin-3-yl)ethyl]-2-methyl-8-[4-(trifluoromethyl)phenyl]-2H,8H-pyrazolo[3,4-b]indole-5-carboxamide]	10 to 100	–
Cn1nc2c3cc(C4CC(Oc5cncnc5)=NO4)ccc3n(-c3ccc(C(F)(F)F)cc3)c2n1 (centres unmarked) [Example C234, 5-[(5-{2-methyl-4-[4-(trifluoromethyl)-phenyl]-2H,4H-[1,2,3]triazolo[4,5-b]indol-7-yl}-4,5-dihydro-1,2-oxazol-3-yl)oxy]pyrimidine]	10 to 100	–
Cc1snc2c1c1cc(C(=O)NC[C@H](O)C(F)(F)F)ccc1n2-c1ccc(C(F)(F)F)cc1 [Example C55, 3-methyl-N-[(2S)-3,3,3-trifluoro-2-hydroxypropyl]-8-[4-(trifluoro-methyl)phenyl]-8H-[1,2]thiazolo[3,4-b]indole-5-carboxamide]	100 to 10000	–
CNC(=O)c1ccc2c(c1)c1cn(C)nc1n2C1CC2(C1)CC(F)(F)C2 [Example C206, 8-{6,6-difluorospiro[3.3]heptan-2-yl}-N,2-dimethyl-2H,8H-pyrazolo[3,4-b]indole-5-carboxamide]	10 to 100	–
Cn1cc2c3nc(C(=O)N=S(C)(=O)CCO)ccc3n(-c3ccc(C(F)(F)F)cc3)c2n1 (centres unmarked) [Example C109, N-[(2-hydroxyethyl)(methyl)oxo-λ^6-sulfanylidene]-4-methyl-7-[4-(trifluoromethyl)phenyl]-4,5,7,12-tetraazatricyclo [6.4.0.0^2,6]dodeca-1(8),2,5,9,11-pentaene-11-carboxamide]	–	> 30000
C[C@H](NC(=O)c1ccc2c(c1)c1cn(C)nc1n2-c1ccc(C(F)(F)F)cc1)C1CNC1 [Example C144, N-[(1S)-1-(azetidin-3-yl)ethyl]-2-methyl-8-[4-(trifluoromethyl)phenyl]-2H,8H-pyrazolo[3,4-b]indole-5-carboxamidetrifluoroacetate]	100 to 10000	–
Cn1cc2c3cc(C(N)=O)ccc3n(C3CC4(C3)CC(F)(F)C4)c2n1 [Example C205, 8-{6,6-difluorospiro[3.3]heptan-2-yl}-2-methyl-2H,8H-pyrazolo[3,4-b]indole-5-carboxamide]	100 to 10000	–
Cn1cc2c3cc(C(=O)N[C@H](CCO)c4cncs4)ccc3n(-c3ccc(C(F)(F)F)cc3)c2n1 (single isomer, unassigned) [Example C163]	100 to 10000	–
Cn1cc2c3nc(C(=O)NCCO)ccc3n(-c3ccc(C(F)(F)F)cc3)c2n1 [Example C113, N-(2-hydroxyethyl)-4-methyl-7-[4-(trifluoromethyl)phenyl]-4,5,7,12-tetraazatricyclo [6.4.0.0^2,6]dodeca-1(8),2,5,9,11-pentaene-11-carboxamide]	100 to 10000	–
Cn1cc2c3cc(NC(=O)CC4CCNC4)ccc3n(-c3ccc(C(F)(F)F)cc3)c2n1 (centres unmarked) [Example C223, N-{2-methyl-8-[4-(trifluoromethyl)-phenyl]-2H,8H-pyrazolo[3,4-b]indol-5-yl}-2-(pyrrolidin-3-yl)acetamide]	100 to 10000	–
CNc1ccc2c(c1)c1cn(C)nc1n2-c1ccc(C(F)(F)F)cc1 [Example C32, N,2-dimethyl-8-[4-(trifluoromethyl)phenyl]-2H,8H-pyrazolo[3,4-b]indol-5-amine]	100 to 10000	–
CC(NC(=O)c1ccc2c(c1)c1cn(C)nc1n2-c1ccc(C(F)(F)F)cc1)c1cccc(NC(=O)OC(C)(C)C)n1 (centres unmarked) [Example C165, tert-butyl N-{6-[1-({2-methyl-8-[4-(trifluoromethyl)phenyl]-2H,8H-pyrazolo[3,4-b]indol-5-yl}formamido)ethyl]pyridin-2-yl}carbamate]	100 to 10000	–

The remaining lines, values ahead:

IC50 (class symbols) [nM]	IC50 [1] [nM]	Structure (SMILES)
100 to 10000	–	C[C@H](NC(=O)c1ccc2c(c1)c1cn(C)nc1n2-c1ccc(C(F)(F)F)cc1)c1ccncc1 [Example C127, 2-methyl-N-[(1S)-1-(pyridin-4-yl)ethyl]-8-[4-(trifluoromethyl)phenyl]-2H,8H-pyrazolo[3,4-b]indole-5-carboxamide]
> 10000	–	Cn1cc2c(n1)c1cc(S(=O)(=O)N3CCC[C@H]3c3cccnc3)ccc1n2-c1ccc(C(F)(F)F)cc1 (single isomer, unassigned) [Example C14]
100 to 10000	–	C[C@@H](NC(=O)c1ccc2c(c1)c1cn(C)nc1n2-c1ccc(C(F)(F)F)cc1)c1ccccn1 [Example C107, 2-methyl-N-[(1R)-1-(pyridin-2-yl)ethyl]-8-[4-(trifluoromethyl)phenyl]-2H,8H-pyrazolo[3,4-b]indole-5-carboxamide]
–	> 30000	Cn1cc2c(n1)c1cc(S(=O)(=O)N3C[C@H](O)C[C@@H]3c3ccccc3)ccc1n2-c1ccc(C(F)(F)F)cc1 (single isomer, unassigned) [Example C40]
10 to 100	–	Cn1nc2c3cc(C(=O)N=[S@](=O)(CCO)Cc4cccnc4)ccc3n(-c3ccc(C(F)(F)F)cc3)c2n1 (single isomer, unassigned) [Example C235]
–	> 10000	Cn1cc2c3cc(S(=O)(=O)N4CCCC4)ccc3n(-c3ccc(C(F)(F)F)cc3)c2n1 [Example C84, 1-({2-methyl-8-[4-(trifluoromethyl)phenyl]-2H,8H-pyrazolo[3,4-b]indol-5-yl}sulfonyl)pyrrolidine]
100 to 10000	–	Cn1cc2c3cc(C(=O)N=[S@@](=O)(CCO)Cc4cccnc4)ccc3n(-c3ccc(C(F)(F)F)cc3)c2n1 (single isomer, unassigned) [Example C190]
> 10000	–	Cn1cc2c(n1)c1cc(S(=O)(=O)N3CCC[C@@H]3c3cccnc3)ccc1n2-c1ccc(C(F)(F)F)cc1 [Example C8, 3-[(2R)-1-({2-methyl-4-[4-(trifluoromethyl)phenyl]-2H,4H-pyrazolo[4,3-b]indol-7-yl}sulfonyl)pyrrolidin-2-yl]pyridine]
